These results are taken from ChEMBL document CHEMBL1201862, “PubChem BioAssay data set” (2004).

Among the test systems are MOLT-4; COLO 205; EKVX; SNB-78; SW-620; OVCAR-3; U-251; UACC-257; CAKI-1; SN12C; SR; NCI-H23; NCI-H522; A549; UACC-62; RPMI-8226; HOP-92; DU-145; PC-3; MDA-MB-231.
What all share (assay): DTP human tumour cell line panel, 48 h

The structures appear in SMILES notation.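 In this assay, cells in 96-well plates receive the compound at five concentrations for 48 hours. Endpoints are linearly interpolated between the surrounding concentrations. GI50 = concentration required for 50% inhibition of growth.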 Activity calls are given as the source filed them. Rule as the data show it: active = GI50 up to about 1.1 µM and inactive = higher. Where only a bound is given, the exact number is not on record here.

For the molecule `COc1ccc(Cc2c3cc(O)c([O-])cc3cc[n+]2C)cc1`, the GI50 was 10.2 µM (inactive) in the assay with MOLT-4; 39.1 µM (inactive) with COLO 205; > 73.6 µM (inactive) in the assay on EKVX; > 100 µM (inactive) in the assay on SNB-78; 36.1 µM (inactive) with SW-620; 27.7 µM (inactive) in the assay on OVCAR-3. For the same molecule, the GI50 is 12.7 µM (inactive) in the assay with U-251; 28.4 µM (inactive) with UACC-257; 8.55 µM (inactive) with CAKI-1; 21 µM (inactive) in the assay with SN12C; 5.86 µM (inactive) in the assay on SR; 29.8 µM (inactive) in the assay on NCI-H23. In addition, the GI50 in the assay on NCI-H522 is 23.3 µM (inactive); in the assay with A549 it was 30.8 µM (inactive); in the assay with UACC-62, 23.9 µM (inactive); in the assay on RPMI-8226, 28.4 µM (inactive); in the assay on HOP-92, 47.9 µM (inactive).

`CC1=CC(=O)CC2(C)CC[C@@H]3C[C@]12OC3(C)C` (stereo partly specified): the GI50 in the assay with MOLT-4, in the assay on COLO 205, in the assay with EKVX, in the assay with SNB-78, with SW-620 and with OVCAR-3 was > 100 µM (inactive) in each case. In addition, the GI50 with U-251, in the assay with UACC-257, in the assay on CAKI-1, in the assay on SN12C, in the assay with SR and in the assay with NCI-H23 was > 100 µM (inactive) throughout. Also, the GI50 in the assay with NCI-H522, in the assay on A549, in the assay on UACC-62, in the assay on RPMI-8226 and in the assay with HOP-92 was > 100 µM (inactive) in each case.

With `NS(=O)(=O)c1ccc(NC2=CC(=O)C(=O)c3ccccc32)cc1`, the GI50 is 72.1 µM (inactive) in the assay on MOLT-4; > 100 µM (inactive) in the assay with COLO 205; > 100 µM (inactive) in the assay with EKVX; > 100 µM (inactive) in the assay on SNB-78; > 100 µM (inactive) in the assay with SW-620; > 100 µM (inactive) in the assay on OVCAR-3. The GI50 in the assay with U-251, with UACC-257, with CAKI-1, with SN12C, in the assay on SR and with NCI-H23 was > 100 µM (inactive) in each case. Besides, the GI50 with NCI-H522, with A549, with UACC-62, with RPMI-8226 and with HOP-92 was > 100 µM (inactive) throughout.

For `COc1ccc(/C(C)=N/NC(N)=S)c(OC)c1`, the GI50 with MOLT-4 is > 100 µM (inactive); in the assay on COLO 205 it was > 100 µM (inactive); in the assay with EKVX, 63.4 µM (inactive); in the assay on SNB-78, > 100 µM (inactive); with SW-620 it was 43.3 µM (inactive); in the assay with OVCAR-3, > 100 µM (inactive). The GI50 is 49.1 µM (inactive) with U-251; > 100 µM (inactive) in the assay on UACC-257; > 100 µM (inactive) with CAKI-1; > 100 µM (inactive) in the assay with SN12C; > 100 µM (inactive) in the assay with SR; > 100 µM (inactive) with NCI-H23. The GI50 in the assay on NCI-H522 was 18.4 µM (inactive); in the assay on A549 it was > 100 µM (inactive); in the assay on UACC-62 it was > 100 µM (inactive); in the assay with RPMI-8226, > 100 µM (inactive); with HOP-92 it was > 100 µM (inactive).

As for `CCN(CC)CC(=O)O[C@]1(CC)C(=O)OCc2c1cc1n(c2=O)Cc2cc3ccccc3nc2-1`, the GI50 in the assay on MOLT-4 is < 0.01 µM (active); in the assay on COLO 205, 0.209 µM (active); with EKVX, 0.256 µM (active); in the assay on SNB-78, 0.953 µM (active); in the assay on SW-620, 0.0946 µM (active); in the assay on OVCAR-3, 0.219 µM (active). The GI50 with DU-145 is < 0.01 µM (active); with U-251, < 0.01 µM (active); with UACC-257, 0.0798 µM (active); in the assay with CAKI-1 it was < 0.01 µM (active); in the assay with SN12C it was 0.0204 µM (active); in the assay on SR, < 0.01 µM (active). In addition, the GI50 in the assay with NCI-H23 was < 0.016 µM (active); with NCI-H522 it was 0.0247 µM (active); in the assay with A549, 0.0237 µM (active); with PC-3, 0.054 µM (active); in the assay on UACC-62 it was < 0.01 µM (active); in the assay on RPMI-8226, 0.165 µM (active). Besides, the GI50 was 0.211 µM (active) with HOP-92 and 3.37 µM (inactive) in the assay on MDA-MB-231.

Regarding `O=c1cc(-c2ccccc2F)[nH]c2cc3c(cc12)OCO3`, the GI50 was 0.245 µM (active) in the assay on MOLT-4; 0.0512 µM (active) in the assay with COLO 205; 0.23 µM (active) in the assay on SNB-78; 0.0356 µM (active) in the assay with SW-620; 0.0341 µM (active) with OVCAR-3; 0.0399 µM (active) in the assay on DU-145. Also, the GI50 was 0.0995 µM (active) in the assay with U-251; 1.2 µM (inactive) in the assay with UACC-257; 0.281 µM (active) in the assay on SN12C; 0.0147 µM (active) with SR; 0.35 µM (active) in the assay with NCI-H23; 0.0402 µM (active) with NCI-H522. Besides, the GI50 with A549 was 0.204 µM (active); in the assay on PC-3, 0.0495 µM (active); in the assay on UACC-62 it was 0.042 µM (active); in the assay with RPMI-8226 it was 0.0631 µM (active); in the assay on HOP-92 it was 0.212 µM (active); in the assay on MDA-MB-231 it was 0.29 µM (active).

In general, GI50 refers to the concentration giving 50% growth inhibition.
